Data on 23 compounds can be found in patent US20240043943A1, “METHODS AND COMPOSITIONS FOR PROTEASE REPORTER ASSAYS AND MODULATORS” (712 NORTH, INC., priority 2021, published 2024).

For series [1], the target named is T1, OMA1 protease (Homo sapiens, UniProt Q96E52).
T1 sequence (Q96E52 144-524): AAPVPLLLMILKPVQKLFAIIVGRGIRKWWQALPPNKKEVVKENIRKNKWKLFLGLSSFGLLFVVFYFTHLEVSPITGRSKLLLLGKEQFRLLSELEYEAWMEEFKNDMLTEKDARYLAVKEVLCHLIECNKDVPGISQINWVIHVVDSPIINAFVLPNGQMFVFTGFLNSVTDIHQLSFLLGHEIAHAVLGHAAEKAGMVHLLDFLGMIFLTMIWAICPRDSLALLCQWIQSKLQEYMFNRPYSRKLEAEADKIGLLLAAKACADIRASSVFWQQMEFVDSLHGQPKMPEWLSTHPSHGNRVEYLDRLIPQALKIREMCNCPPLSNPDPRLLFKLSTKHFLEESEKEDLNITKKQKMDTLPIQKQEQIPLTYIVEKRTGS
As to the kind of experiment: Rep#15 / Luke-S1 OMA1 reporter bioluminescence assay in Hek293T cells. In kind it is cell-based. Also on record: The OMA1 enzyme is dormant under physiological cell culture conditions in these cells; endogenous in cells; host or cells: Hek293T cells, transiently or stably (Luke-S1 line, ATCC PTA-127022) expressing reporter #15. The settings on record: for OMA1 modulating properties: drugs identified with the OMA1 assays (FIG. 17, FIG. 10). An excerpt: Example 1 provides a nonlimiting example of generation and use of a reporter of present invention and illustrates its function. To this end, generation and use of reporter gene #01 (SEQ ID NO: 01) and reporter gene #15 (SEQ ID NO: 15) are described and their function compared to each other. The general design of a reporter of present invention is illustrated in FIG. 1A and its working principle in FIG. 1B. A reporter in general, and reporter gene #01 and reporter gene #15 in particular, can be generated as follows. DNA sequences of a reporter may be codon-optimized in silico or by any other way for expression in a suitable host. DNA sequences of reporter genes #01 and #15 were codon-optimized for expression in humans (SEQ ID NO: 02 and SEQ ID NO: 16, respectively). The (optimized) sequences were synthesized and cloned into a pcDNA3.1 expression vector under the control of a CMV promotor (see FIG. 1 for an illustration of such vector). Of course, an expression system and a host should match for best results. The host in this example were Hek293T cells, which were maintained under standard culture conditions in DMEM with 10% Fetal Bovine Serum and 1% Pen/Strep. For an experiment, Hek293T cells were seeded in opaque white tissue-culture treated 96-well plates at 80% confluency and transfected with vectors carrying reporter gene #01 and reporter gene #15 and 24 hours later incubated for 30 minutes at 37° C. in OptiMEM or in OptiMEM with 10 μM CCCP. After 30 minutes, the OptiMEM cell-culture media was replaced with luciferase substrate (furimazine, Promega) diluted 1:100 in OptiMEM, and bioluminescence was measured with a Fluoroskan Ascent FL (Thermo Scientific) using a 517 nm single-pass filter and 200 milliseconds integration time. […] Reporter #01 comprises a large part of OPA1's amino-terminus as mitochondrial targeting sequence, which is cleaved by the mitochondrial processing peptidase upon mitochondrial import (see Example 2). Reporter #15 was initially envisioned as a control for reporter #01. Reporter #15 therefore lacks the first 66 amino acids of reporter #01 believed to be essential for mitochondrial import.
Example 5 illustrates how mitochondrial toxicity can be measured with reporter and assays of present invention. The OMA1-OPA1 pathway basically serves as a “canary-in-the-coalmine” for a mitochondrial deterioration. […] Hek293T cells expressing reporter #01 and #15 were exposed to CCCP, tipranavir and sorafenib (in OptiMEM) for 30 minutes before the medium was replaced with furimazine (1:100), and bioluminescence measured.
The following non-limiting examples illustrate in more details the in vivo assessment of OMA1 protease activity utilizing an artificial luciferase reporter of present invention stably expressed in Hek293T cells.

The test system of series [2] is OPA1. The following applies: literature; cited from earlier work.
In series [3] the target is T1, OMA1 protease. As to the kind of experiment: Rep#15 assay with phenanthroline preincubation before CCCP (OMA1 inhibitor control). The following applies: 500 μM phenanthroline 1 hour, then 10 μM CCCP 30 minutes. The arrangement: The OMA1 enzyme is dormant under physiological cell culture conditions in these cells; endogenous in cells; host or cells: Hek293T cells, transiently or stably (Luke-S1 line, ATCC PTA-127022) expressing reporter #15. In kind it is cell-based. The method, then: Example 2 refers to FIG. 4 and illustrates hydrolysis of reporter #01 and reporter #15. For this example, transfected cells were selected by puromycin. Reporter cells were exposed for 30 minutes to 10 μM CCCP before being harvested in RIPA buffer and subjected to 12% SDS-PAGE followed by Western-blotting. […] Full-length reporter #01 has a predicted size of 39.6 kDa but was not detected in Western blots. […] At the same time, reporter #15 is not processed upon import, but migrated at its expected size of 31.9 kDa. (Example 7 establishes mitochondrial import by showing co-migration of reporter #15 with OPA1 and OMA1 in mitochondria-enriched fractions.) Reporter #15 appears to be more abundant and stable, which may explain its better performance. […] This provides additional evidence that reporter #15 is indeed localized in mitochondria where it is recognized and hydrolyzed by OMA1. […] Therefore, phenanthroline was used as a positive control in the reporter assay. If reporter #15 indeed is cleaved by OMA1, then phenanthroline should prevent this at least to a certain extend by inhibiting OMA1 and accordingly preserving the signal. Hek293T cells were transfected with reporter gene #15 as described in the preceding example. […] After 30 minutes, the medium was replaced with furimazine (1:100 in OptiMEM), and bioluminescence measured as described in Example 1.

Series [4] has as its target T1, OMA1 protease. The following applies: literature; cited from earlier work.
The test system of series [5] is mitochondria. The settings on record: FDA labels, cited from earlier work.
The target in series [6] is T1, OMA1 protease. As to the kind of experiment: Rep#01 OMA1 reporter bioluminescence assay in Hek293T cells. In kind it is cell-based. The arrangement: The OMA1 enzyme is dormant under physiological cell culture conditions in these cells; endogenous in cells; host or cells: Hek293T cells, transiently or stably (Luke-S1 line, ATCC PTA-127022) expressing reporter #15. The following applies: 30 minutes exposure, CCCP 10 μM. An excerpt:
Example 1 provides a nonlimiting example of generation and use of a reporter of present invention and illustrates its function. To this end, generation and use of reporter gene #01 (SEQ ID NO: 01) and reporter gene #15 (SEQ ID NO: 15) are described and their function compared to each other. The general design of a reporter of present invention is illustrated in FIG. 1A and its working principle in FIG. 1B. A reporter in general, and reporter gene #01 and reporter gene #15 in particular, can be generated as follows. DNA sequences of a reporter may be codon-optimized in silico or by any other way for expression in a suitable host. DNA sequences of reporter genes #01 and #15 were codon-optimized for expression in humans (SEQ ID NO: 02 and SEQ ID NO: 16, respectively). The (optimized) sequences were synthesized and cloned into a pcDNA3.1 expression vector under the control of a CMV promotor (see FIG. 1 for an illustration of such vector). Of course, an expression system and a host should match for best results. The host in this example were Hek293T cells, which were maintained under standard culture conditions in DMEM with 10% Fetal Bovine Serum and 1% Pen/Strep. For an experiment, Hek293T cells were seeded in opaque white tissue-culture treated 96-well plates at 80% confluency and transfected with vectors carrying reporter gene #01 and reporter gene #15 and 24 hours later incubated for 30 minutes at 37° C. in OptiMEM or in OptiMEM with 10 μM CCCP. After 30 minutes, the OptiMEM cell-culture media was replaced with luciferase substrate (furimazine, Promega) diluted 1:100 in OptiMEM, and bioluminescence was measured with a Fluoroskan Ascent FL (Thermo Scientific) using a 517 nm single-pass filter and 200 milliseconds integration time. […]
Example 5 illustrates how mitochondrial toxicity can be measured with reporter and assays of present invention. […] Hek293T cells expressing reporter #01 and #15 were exposed to CCCP, tipranavir and sorafenib (in OptiMEM) for 30 minutes before the medium was replaced with furimazine (1:100), and bioluminescence measured.

“Also recorded” adds a separate entry of the source. Counter-ions that a name gives are not always drawn. Like-named read-outs stand apart in the source and are kept apart here. Starred links: 1 amine or outer side, 2 acyl side, 3 side chain; linkers in the order of their positions; H or OH if unused. Positions of bridges follow the written chain, without caps; N, C: chain ends. Non-standard residues stand in square brackets, D forms with d. Residues, ends and D or L forms follow the SMILES beside them. Chains are numbered I, II in the order given. Actinocin(9to1) = Cc1c2oc3c(C)ccc(C(=O)[*:1])c3nc-2c(C(=O)[*:2])c(N)c1=O; NMeV = CN[C@H](C(=O)O)C(C)C; Sar = CNCC(=O)O

In the case of `Cc1cc(Nc2ncc(Cl)c(Nc3ccccc3S(=O)(=O)C(C)C)n2)c(OC(C)C)cc1C1CCNCC1` [Ceritinib], the OMA1 modulating properties result in series [1] was “OMA1 modulating properties”. `Cc1c2oc3c(C)ccc(C(=O)N[C@@H]4C(=O)N[C@H](C(C)C)C(=O)N5CCC[C@H]5C(=O)N(C)CC(=O)N(C)[C@@H](C(C)C)C(=O)O[C@@H]4C)c3nc-2c(C(=O)N[C@@H]2C(=O)N[C@H](C(C)C)C(=O)N3CCC[C@H]3C(=O)N(C)CC(=O)N(C)[C@@H](C(C)C)C(=O)O[C@@H]2C)c(N)c1=O` [Dactinomycin] (I: T[dV]P[Sar][NMeV] / II: T[dV]P[Sar][NMeV]; ester I:1-I:C, II:1-II:C; linker I:N-II:N via Actinocin(9to1)): the OMA1 modulating properties result in series [1] is “OMA1 modulating properties”. Consider `COc1cccc2c1C(=O)c1c(O)c3c(c(O)c1C2=O)C[C@@](O)(C(C)=O)C[C@@H]3O[C@H]1C[C@H](N)[C@H](O)[C@H](C)O1` [Daunorubicin hydrochloride], for which the OMA1 modulating properties entry in series [1] is given as “OMA1 modulating properties”. On the same count and under the same terms, then `COc1cccc2c1C(=O)c1c(O)c3c(c(O)c1C2=O)C[C@@](O)(C(=O)CO)C[C@@H]3O[C@H]1C[C@H](N)[C@H](O)[C@H](C)O1` [Doxorubicin hydrochloride], with “OMA1 modulating properties”; and `CC(C)(O)CNc1nc(Nc2ccnc(C(F)(F)F)c2)nc(-c2cccc(C(F)(F)F)n2)n1` [Enasidenib], with “OMA1 modulating properties”; and `CN1CCN(c2ccc(C(=O)Nc3n[nH]c4ccc(Cc5cc(F)cc(F)c5)cc34)c(NC3CCOCC3)c2)CC1` [Entrectinib], with “OMA1 modulating properties”. For `CC(=O)[C@]1(O)Cc2c(O)c3c(c(O)c2[C@@H](O[C@H]2C[C@H](N)[C@H](O)[C@H](C)O2)C1)C(=O)c1ccccc1C3=O` [Idarubicin hydrochloride], the OMA1 modulating properties entry in series [1] was “OMA1 modulating properties”.

As to `Cc1ccc(NC(=O)c2ccc(CN3CCN(C)CC3)cc2)cc1Nc1nccc(-c2cccnc2)n1` [Imatinib], in series [1], the OMA1 modulating properties entry was “OMA1 modulating properties”. As to `Clc1ccc(C(c2ccccc2Cl)C(Cl)Cl)cc1` (stereo not drawn) [Mitotane], the OMA1 modulating properties entry in series [1] is listed as “OMA1 modulating properties”. For `C=CC(=O)Nc1cc(Nc2nccc(-c3cn(C)c4ccccc34)n2)c(OC)cc1N(C)CCN(C)C` [Osimertinib], the OMA1 modulating properties entry in series [1] is on record as “OMA1 modulating properties”. For the compound `FC(F)(F)c1ccc(CNc2ccc(Cc3c[nH]c4ncc(Cl)cc34)cn2)cn1` [Pexidartinib], the OMA1 modulating properties entry in series [1] is reported as “OMA1 modulating properties”. Same read-out and setting: then `O=C(c1ccc(OCCN2CCCCC2)cc1)c1c(-c2ccc(O)cc2)sc2cc(O)ccc12` [Raloxifene], with “OMA1 modulating properties”. On the same count and under the same terms, then `CNC(=O)c1cc(Oc2ccc(NC(=O)Nc3ccc(Cl)c(C(F)(F)F)c3)c(F)c2)ccn1` [Regorafenib], with “OMA1 modulating properties”; and `CN(C)C(=O)c1cc2cnc(Nc3ccc(N4CCNCC4)cn3)nc2n1C1CCCC1` [Ribociclib], with “OMA1 modulating properties”; and `O=C(/C=C\n1cnc(-c2cc(C(F)(F)F)cc(C(F)(F)F)c2)n1)NNc1cnccn1` [Selinexor], with “OMA1 modulating properties”.

Regarding `CC/C(=C(\c1ccccc1)c1ccc(OCCN(C)C)cc1)c1ccccc1` [Tamoxifen citrate], the OMA1 modulating properties result in series [1] was “OMA1 modulating properties”. Still for that read-out and setting: the same measure for `Cc1cc(Nc2ncnc3ccc(NC4=NC(C)(C)CO4)cc23)ccc1Oc1ccn2ncnc2c1` [Tucatinib]: “OMA1 modulating properties”. Take `CCCCC(=O)OCC(=O)[C@]1(O)Cc2c(O)c3c(c(O)c2[C@@H](O[C@H]2C[C@H](NC(=O)C(F)(F)F)[C@H](O)[C@H](C)O2)C1)C(=O)c1c(OC)cccc1C3=O` [Valrubicin]: in series [1], the OMA1 modulating properties entry is “OMA1 modulating properties”.

With `N.N.[Cl][Pt][Cl]` [cisplatin], in series [2], the OPA1 cleavage entry is given as “can promote OPA1 cleavage”. For `c1cnc2c(c1)ccc1cccnc12` [phenanthroline], the “bioluminescence signal of reporter #15 after CCCP with inhibitor pretreatment” value in series [3] is on record as “prevented reporter #15 deactivation; also recorded: largely preserved”. Moreover, the “effect on OMA1 protease” value in series [4] was “can inhibit OMA1 protease in vitro”.

For `CNC(=O)c1cc(Oc2ccc(NC(=O)Nc3ccc(Cl)c(C(F)(F)F)c3)cc2)ccn1` [sorafenib, Sorafenib], the mitochondrial toxicity entry in series [5] was “exhibit mitochondrial toxicity”. For the same compound, in series [1] (Hek293T, 30 minutes exposure, CCCP 10 μM), the “bioluminescence signal of reporter #15” value is listed as “significantly reduced signal; also recorded: significantly reduced bioluminescence”. Also, the OMA1 modulating properties entry in series [1] is on record as “OMA1 modulating properties”. The OPA1 cleavage entry in series [2] is given as “can promote OPA1 cleavage”. In addition, the “bioluminescence signal of reporter #01” value in series [6] is “significantly reduced bioluminescence”; in series [6] (listed as Sorafenib), “comparable effects”. Take `CCC[C@@]1(CCc2ccccc2)CC(O)=C([C@H](CC)c2cccc(NS(=O)(=O)c3ccc(C(F)(F)F)cn3)c2)C(=O)O1` [tipranavir]: the figures for the mitochondrial toxicity result in series [5] and in series [5] (listed as Tipranavir) were “exhibit mitochondrial toxicity” and “cause mitochondrial toxicity”, respectively. Regarding Dabrafenib mesylate, the OMA1 modulating properties entry in series [1] was “OMA1 modulating properties”.
